For test [1], the target named is T1, GST-ARV1-N98 C34/C37A (Homo sapiens, UniProt Q9H2C2, C34A/C37A).
T1 construct: Expresses amino-terminal 98 amino acids of ARV1; made in house; host or cells: E. coli BL21 (pGEX-4T1)
T1 sequence (Q9H2C2 1-98 C34A/C37A): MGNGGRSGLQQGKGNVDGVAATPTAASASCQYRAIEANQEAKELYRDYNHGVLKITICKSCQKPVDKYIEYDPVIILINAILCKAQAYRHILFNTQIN
Briefly: Liposome binding assay, site-directed mutant. The following applies: PC:PL, sulfatide or PI(4)P liposomes. As for the experimental part: (§1) Lyophilized lipids were reconstituted in chloroform at 10 mg/ml and stored in glass tubes with Teflon tops at −20 °C until use. One milliliter of 10 mg/ml stock was dried under a stream of nitrogen in a glass tube until a lipid cake/film was formed. The lipid cake was then rehydrated in BLT rehydration buffer (5 mM Tris/HCl, pH 7.4, containing 150 mM NaCl) to a concentration of 1 mg/ml. Lipid suspensions were subjected to three freeze/thaw cycles using a dry ice ethanol/[…] water bath to encapsulate the buffer and improve liposome formation. The suspension and lipid extruder were equilibrated to temperature for 10 min and liposomes were extruded using […] polycarbonate membranes (Avestin). Liposomes were made by mixing stock lipid PL (1 mg/ml) with PC (10 mg/ml).
(§2) Sulfatide liposomes were generated as previously described ([94]). All lipids were resuspended in organic solvents as per manufacturer’s instructions. Liposomes were prepared with mixing PC:PE:cholesterol:sulfatides (1:1:1:4) and subsequently dried down by lyophilization to obtain lipid films. Lipids were hydrated in 20 mM Tris–HCL, pH 6.8, containing 100 mM NaCl at a concentration of 1 mg/ml.
(§3) PI(4)P liposomes were generated as described by Knodler et al. ([95]), with some modifications. Briefly, liposomes were generated at a lipid concentration of 10 mg/ml. Liposomes contained PC (60%), PI (30%), PE (8%), and PI(4)P (2%). Lipid solution was dried down and resuspended in liposome buffer (20 mM Hepes–HCL, pH 7.4, containing 1 mM EDTA and 50 mM potassium acetate). Liposomes were formed by sonication on ice.
(§4) Liposomes were serial diluted in floatation buffer (100 mM NaCl, 2 mM EDTA, pH 5.5) to a final concentration of 0.1 mg/ml. Nine hundred microliters of liposome solution was placed in clear ultracentrifuge tubes and mixed with 100 μl of 0.01 μg/ml of protein. The liposome/protein solution was incubated at room temperature for 1 h with occasional shaking. An initial 100 μl of liposome/protein solution (liposomes) was removed and the remaining 900 μl was centrifuged at 50,000g for 20 min at 4 °C. The pellet was resuspended in 800 μl of fresh floatation buffer, centrifuged as above, and 800 μl of supernatant was removed (wash 1). This was repeated a second time and again 800 μl of supernatant was removed (wash 2). The final pellet was resuspended in 100 μl of floatation buffer plus SDS treatment buffer (pellet). Thirty microliters of each fraction was run on a 15% SDS-PAGE gel and probed with an anti-GST monoclonal antibody at a 1:1500 dilution.

Test [2] has as its target T2, GST-ARV1-N98 K67A (Homo sapiens, UniProt Q9H2C2, K67A).
T2 construct: Expresses amino-terminal 98 amino acids of ARV1; made in house; host or cells: E. coli BL21 (pGEX-4T1)
T2 sequence (Q9H2C2 1-98 K67A): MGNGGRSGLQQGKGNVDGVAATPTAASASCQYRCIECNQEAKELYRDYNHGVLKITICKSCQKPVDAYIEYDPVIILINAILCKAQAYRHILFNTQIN
Briefly: Liposome binding assay, site-directed mutant. As to conditions: PC:PL, sulfatide liposomes. As for the experimental part: as §1, §2, §3, §4

Test [3] has as its target T3, GST-ARV1-N98 C58/C61A (Homo sapiens, UniProt Q9H2C2, C58A/C61A).
T3 construct: Expresses amino-terminal 98 amino acids of ARV1; made in house; host or cells: E. coli BL21 (pGEX-4T1)
T3 sequence (Q9H2C2 1-98 C58A/C61A): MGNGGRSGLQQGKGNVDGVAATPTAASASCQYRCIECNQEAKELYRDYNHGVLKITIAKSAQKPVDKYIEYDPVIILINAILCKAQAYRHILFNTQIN
Description: Liposome binding assay, site-directed mutant. The following applies: PC:PL, sulfatide or PI(4)P liposomes. As for the experimental part:
as §1, §2, §3, §4

The target of test [4] is T4, GST-ARV1-N98 K54/K59A (Homo sapiens, UniProt Q9H2C2, K54A/K59A).
T4 construct: Expresses amino-terminal 98 amino acids of ARV1; made in house; host or cells: E. coli BL21 (pGEX-4T1)
Briefly: Liposome binding assay, site-directed mutant. The following applies: PC:PL, sulfatide liposomes. As for the experimental part:
as §1, §2, §3, §4

Test [5] addresses T5, GST-ARV1-N98 N94A (Homo sapiens, UniProt Q9H2C2, N94A).
T5 construct: Expresses amino-terminal 98 amino acids of ARV1; made in house; host or cells: E. coli BL21 (pGEX-4T1)
T5 sequence (Q9H2C2 1-98 N94A): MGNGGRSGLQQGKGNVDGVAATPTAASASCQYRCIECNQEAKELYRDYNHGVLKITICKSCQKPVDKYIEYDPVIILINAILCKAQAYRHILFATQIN
Description: Liposome binding assay, site-directed mutant. The following applies: PC:PL, sulfatide or PI(4)P liposomes. Here is the method: as §1, §2, §3, §4

In test [6] the target is T6, GST-ARV1-N98 (Homo sapiens, UniProt Q9H2C2).
T6 construct: Expresses amino-terminal 98 amino acids of ARV1; made in house; host or cells: E. coli BL21 (pGEX-4T1)
T6 sequence (Q9H2C2 1-98): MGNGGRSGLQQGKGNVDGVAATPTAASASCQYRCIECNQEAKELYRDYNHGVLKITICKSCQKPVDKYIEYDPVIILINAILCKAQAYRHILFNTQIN
Briefly: Lipid overlay far western. Type of test: binding. The following applies: lipid-embedded membrane strips, incl. sphingolipid strip. Here is the method:
(§5) Lipid overlays were blocked in TBST-BSA (100 mM Tris–HCl buffer, pH 7.5, 150 mM NaCl, 0.5% Tween 20, 3% bovine serum albumin) for 1 h and subsequently washed eight separate times with TBST for 2 min each. Overlays were incubated with 0.5 μg/ml GST-tagged or 6XHIS-tagged proteins in 3% TBST-BSA buffer containing 0.1% Triton X-100, for 1 h at room temperature and washed as above. Overlays were incubated with either anti-GST or anti-6XHIS monoclonal antibodies at a 1:1000 dilution in TBST-BSA for 1 h at room temperature followed by eight washes in TBST. Overlays were visualized using Immobilon Western Chemiluminescent horseradish peroxidase substrate and protein–lipid interaction was detected using a GE ImageQuant LAS 3000 imager.

Test [7] addresses T7, GST-ARV1 (full-length ARV1) (Homo sapiens, UniProt Q9H2C2).
T7 construct: Expresses full length ARV1; made in house; host or cells: E. coli BL21 (pGEX-4T1)
T7 sequence (Q9H2C2 1-271): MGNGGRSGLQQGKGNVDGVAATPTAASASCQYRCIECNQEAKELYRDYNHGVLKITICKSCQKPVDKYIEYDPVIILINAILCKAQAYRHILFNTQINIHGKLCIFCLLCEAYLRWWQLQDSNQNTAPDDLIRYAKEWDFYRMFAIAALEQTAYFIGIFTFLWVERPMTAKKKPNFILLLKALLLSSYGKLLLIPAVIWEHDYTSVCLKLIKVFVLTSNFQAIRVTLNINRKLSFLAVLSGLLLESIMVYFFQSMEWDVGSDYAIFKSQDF
Briefly: Lipid overlay far western. The test is classed as binding. As to conditions: lipid-embedded membrane strips, incl. sphingolipid strip. Here is the method:
as §5

In test [8] the target is T8, 6XHIS-ARV1-N98 K67A (Homo sapiens, UniProt Q9H2C2, K67A).
T8 construct: Expressing amino-terminal 98 amino acids of ARV1; made in house; host or cells: E. coli BL21 (pET-28a(+))
T8 sequence (Q9H2C2 1-98 K67A): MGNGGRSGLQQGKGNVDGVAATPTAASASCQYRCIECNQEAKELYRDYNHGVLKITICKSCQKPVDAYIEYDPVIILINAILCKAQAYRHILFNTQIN
Briefly: Lipid overlay far western, site-directed mutant. Type of test: binding. The following applies: compared to the ARV1-N98 protein. Here is the method:
as §5

For test [9], the target named is T9, 6XHIS-ARV1-N98 C58/C61A (Homo sapiens, UniProt Q9H2C2, C58A/C61A).
T9 construct: Expressing amino-terminal 98 amino acids of ARV1; made in house; host or cells: E. coli BL21 (pET-28a(+))
T9 sequence (Q9H2C2 1-98 C58A/C61A): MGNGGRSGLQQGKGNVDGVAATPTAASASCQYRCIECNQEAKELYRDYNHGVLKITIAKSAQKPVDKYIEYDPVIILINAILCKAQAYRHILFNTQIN
Description: Lipid overlay far western, site-directed mutant. The test is classed as binding. The following applies: compared to the ARV1-N98 protein. As for the experimental part: as §5

The target in test [10] is T10, 6XHIS-ARV1-N98 N94Q (Homo sapiens, UniProt Q9H2C2, N94Q).
T10 construct: Expressing amino-terminal 98 amino acids of ARV1; made in house; host or cells: E. coli BL21 (pET-28a(+))
T10 sequence (Q9H2C2 1-98 N94Q): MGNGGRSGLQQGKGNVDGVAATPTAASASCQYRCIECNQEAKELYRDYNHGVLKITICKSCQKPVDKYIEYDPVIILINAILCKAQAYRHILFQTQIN
Briefly: Lipid overlay far western, site-directed mutant. The test is classed as binding. The following applies: compared to the ARV1-N98 protein. Here is the method:
as §5

Test [11] deals with T11, 6XHIS-ARV1-N98 C34/C37A (Homo sapiens, UniProt Q9H2C2, C34A/C37A).
T11 construct: Expressing amino-terminal 98 amino acids of ARV1; made in house; host or cells: E. coli BL21 (pET-28a(+))
T11 sequence (Q9H2C2 1-98 C34A/C37A): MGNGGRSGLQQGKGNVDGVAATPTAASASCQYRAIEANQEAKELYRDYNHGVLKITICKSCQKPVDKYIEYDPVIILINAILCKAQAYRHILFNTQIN
Description: Lipid overlay far western, site-directed mutant. The test is classed as binding. The following applies: compared to the ARV1-N98 protein. As for the experimental part:
as §5

For test [12], the target named is T12, 6XHIS-ARV1-N98 K54/K59A (Homo sapiens, UniProt Q9H2C2, K54A/K59A).
T12 construct: Expressing amino-terminal 98 amino acids of ARV1; made in house; host or cells: E. coli BL21 (pET-28a(+))
T12 sequence (Q9H2C2 1-98 K54A/K59A): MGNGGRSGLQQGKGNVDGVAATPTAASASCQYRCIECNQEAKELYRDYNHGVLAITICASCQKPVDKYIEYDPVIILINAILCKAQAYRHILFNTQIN
Briefly: Lipid overlay far western, site-directed mutant. Type of test: binding. The following applies: compared to the ARV1-N98 protein. As for the experimental part: as §5

In test [13] the target is T13, GST-ARV1-N70 (Homo sapiens, UniProt Q9H2C2).
T13 construct: Expresses amino-terminal 70 amino acids of ARV1; made in house; host or cells: E. coli BL21 (pGEX-4T1)
T13 sequence (Q9H2C2 1-70): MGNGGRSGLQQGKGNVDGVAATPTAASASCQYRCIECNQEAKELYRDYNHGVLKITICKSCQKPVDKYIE
Description: Lipid overlay far western, truncation. Type of test: binding. The following applies: compared to ARV1-N98. Here is the method: as §5

Test [14] deals with GST-Annexin A2 (Homo sapiens, UniProt P07355). Briefly: Lipid overlay far western (positive control protein). Type of test: binding. As to conditions: lipid-embedded membrane strips, incl. sphingolipid strip. Here is the method:
as §5

Sequence of GST-Annexin A2 (P07355 whole entry): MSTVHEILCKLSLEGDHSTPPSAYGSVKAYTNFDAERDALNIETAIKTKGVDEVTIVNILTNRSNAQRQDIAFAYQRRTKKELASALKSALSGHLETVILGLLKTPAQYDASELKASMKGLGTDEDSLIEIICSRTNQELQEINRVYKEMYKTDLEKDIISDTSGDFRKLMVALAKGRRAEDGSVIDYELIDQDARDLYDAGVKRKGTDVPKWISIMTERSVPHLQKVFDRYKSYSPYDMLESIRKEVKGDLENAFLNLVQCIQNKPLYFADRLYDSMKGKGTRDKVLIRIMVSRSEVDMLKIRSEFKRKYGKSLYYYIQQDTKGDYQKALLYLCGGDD

Regarding sulfatide, the liposome binding entry is recorded as “not” in [1]; “unable to bind” in test [2]; “did not bind” in test [3]; “unable to bind” in [4]; “very weak” in test [5]. In addition, the lipid-protein interaction result in test [6], in [7] and in test [14] was “interacted” in each case. Also, the “change of lipid-protein interaction” value in test [8] is given as “weakened”; in test [9], “eliminated any interaction”; in test [10], “more strongly”; in test [11] it was “eliminated any interaction”; in test [12] it was “abolished”; in [13], “loss of interaction”.

The record behind these values is paper PMC11952846, “The sterol-regulating human ARV1 binds cholesterol and phospholipids through its conserved ARV1 homology domain” (The Journal of Biological Chemistry, 2025).
